According to patent US20150135343A1, “GTP Sensors” (The Board of Regents of the University of Texas System, priority 2012, published 2015):
pKd: −log10 of the molar value.

Experiments:
[1] = target: T1, AF/FA GTP sensor (mAmetrine 1.1 and E. coli FeoB-cpYFP fusion) 11A variant Triple, GNAGKST (SEQ ID NO: 10) (Escherichia coli, UniProt P33650, P12G/S14A/T17S); assay: GTP binding analysis, fluorescence titration, sensor Triple
T1 construct: modified pET32, His-tag/NiNTA, E. coli BL21(DE3)
Protocol: (§1) Expression and purification: The FA/AF11A protein construct in a modified pET32 vector was used to transform BL21 (DE3) cells. Protein expression was induced with IPTG at a final concentration of 1 mM when the cell OD600 reached 0.6-0.8. Cells were grown for a further 12-14 hrs at 30° C. overnight. Cells were harvested in the morning, suspended in 50 mM TrisHCl, pH 8.3, 2 mM NaCl, 0.1% (v/v) Tween-20, 10 mM imidazole, 1 mM PMSF (lysis buffer), and lysed by sonication. Cell debris was removed by spinning at 17000 rpm for 30 minutes at 4° C. in a Sorvall RC-5C centrifuge equipped with a SS-34 rotor. The lysate, which is bright yellow, was applied to a NiNTA column equilibrated with the same lysis buffer. The loaded NiNTA column was washed with 5 volumes of the lysis buffer followed by 2-volumes of 50 mM TrisHCl, pH8.3, 400 mM NaCl, 50 mM imidazole. Then the protein was eluted in 2 volumes of 50 mM TrisHCl, pH 7.5, 100 mM NaCl, 300 mM imidazole. […] Protein concentration was determined with a BCA assay-kit from Invitrogen using bovine serum albumin for the calibration curve.
(§2) Fluorescent emission spectra of FA/AF11A were obtained at ˜1 μM in binding buffer and 3.0 ml in a quartz cuvette. […] Titrations with GTP, GDP, and ATP were carried out in a BioTeK plate reader on 96-well fluorescence plates from Whatman. […]

[2] = target: T2, AF/FA GTP sensor (mAmetrine 1.1 and E. coli FeoB-cpYFP fusion) 11A variant 12, P12G, GNSGKTT (SEQ ID NO: 7) (Escherichia coli, UniProt P33650, P12G); assay: GTP binding analysis, fluorescence titration, sensor 12
T2 construct: modified pET32, His-tag/NiNTA, E. coli BL21(DE3)
Protocol: as §1, §2

[3] = target: T3, AF/FA GTP sensor (mAmetrine 1.1 and E. coli FeoB-cpYFP fusion) 11A variant 1214, P12G+S14A, GNAGKTT (SEQ ID NO: 8) (Escherichia coli, UniProt P33650, P12G/S14A); assay: GTP binding analysis, fluorescence titration, sensor 1214
T3 construct: modified pET32, His-tag/NiNTA, E. coli BL21(DE3)
Protocol: as §1, §2

[4] = tested on: FeoB, G-protein domain of FeoB protein from Escherichia coli, SEQ ID NO:3; conditions: cited from earlier work
[5] = target: T4, AF/FA GTP sensor (mAmetrine 1.1 and E. coli FeoB-cpYFP fusion) 11A variant 1217, GNSGKST (SEQ ID NO: 9) (Escherichia coli, UniProt P33650, P12G/T17S); assay: GTP binding analysis, fluorescence titration, sensor 1217
T4 construct: modified pET32, His-tag/NiNTA, E. coli BL21(DE3)
Protocol: as §1, §2

[6] = tested on: HEK293 cells; assay: In vivo validation: ratiometric imaging of transfected HEK293 cells with or without MPA; format: cell-based; conditions: 20 μM MPA, HEK293 cells with AF-Triple sensor
Protocol: (§3) AF/FA GTP sensors were subcloned into a pGW1 mammalian cell expression vector with a cytomegalovirus (CMV) promoter. HEK293 cells were transfected with the plasmid DNA using the GenJet (SignaGen) transfection reagent according to the manufacturer's instructions. Cells were allowed to grow for ˜24 hrs before being treated with mycophenolic acid (MPA), which inhibits GTP synthesis. Cells were imaged 20 hrs after drug administration. All cell cultures were carried out with DMEM containing 10% FBS and penicillin/streptomycin and grown at 37° C. in an atmosphere with 5% CO2. Passage number of cells was less than 30 for all experiments.
(§4) Imaging: Cells were imaged in a LabTek 8-chamber 1.5 coverslip-bottom culture-cum-imaging wells. Nikon Eclipse inverted epifluorescence microscope with Sedat Quad 89000 (Chroma Tech) filter along with Sutter instruments automated filter wheel controls was used for all imaging purposes. To ensure adequate signal, 2×2 binning was used. […]
(§5) Images were obtained individually without using the Nikon NIS software ratiometric collection mode. All image quantitative analyses were carried out with the public domain ImageJ (http://rsbweb.nih.gov/ij/) in conjunction with MS Excel and Origin 7. […] Then the ratios of the two intensities were calculated along with the relevant statistics.

[7] = tested on: HEK293 cells transfected with AF-Triple GTP sensor; assay: MPA treatment of HEK293 cells expressing AF-Triple sensor, ratiometric imaging; format: cell-based; conditions: 20 μM MPA
Protocol: as §3, §4, §5

[8] = tested on: HEK293 cells transfected with AF-AAA GTP sensor; assay: MPA treatment of HEK293 cells expressing AF-AAA sensor, ratiometric imaging; format: cell-based; conditions: 20 μM MPA, 20 hrs; GTP-insensitive control sensor
Protocol: as §3, §4, §5

[9] = target: T5, 5a5a-GTP sensor (E. coli FeoB-cpYFP fusion), 5a5a-WT, SEQ ID NO:14 (Escherichia coli, UniProt P33650, E42P/INS38[…]); assay: Effective dissociation constant (Keff) determination, 5a5a-WT; format: binding; conditions: FIG. 7 and FIG. 8
T5 construct: made in house
Source text: DNA encoding a cpYFP was inserted into the DNA encoding residues 35-40 of the FeoB G-protein domain (residues 1-260). Six insertion sites—spaced one codon apart—and 4 combinations of linker lengths between the N- and C-termini of the cpYFP and FeoB genes were used to construct 24 different fusion proteins. Nomenclature followed the form “FY1a-1a”, were the number designates the cpYFP insertion site, with “1” corresponding to insertion after FeoB residue 35 and “6” to insertion after residue 40, and where an “a” after the number indicates the presence of a ser-ala-gly or gly-thr linker at, respectively, the N- or C-terminus of the cpYFP.
The fluorescence from the GTP insensitive protein provided a way to normalize the GTP-sensitive fluorescent signal. […] The ratio of the fluorescence at these two excitation wavelengths is therefore internally normalized for changes in sensor expression levels. In addition, using a single FP provides certain advantages over a 2-FP sensor: (1.) A single FP sensor still generates a ratiometric signal because the binding of GTP causes a […] in fluorescence when excited at longer wavelengths (˜500 nm) but a […] in when excited at shorter (˜400 nm) wavelengths. […] (3.) The change in fluorescence ratio varies from 2-6 fold, depending on pH. […]

Structure (SMILES): Nc1nc2c(ncn2[C@@H]2O[C@H](COP(=O)(O)OP(=O)(O)O)[C@@H](O)[C@H]2O)c(=O)[nH]1 [GDP]
- pKd [1]: ~3.00
- pKd [2]: 3.42
- pKd [3]: 3.28
- rate of GDP release ([4]; 35° C., too fast to measure by stop-flow methods, estimated): > 1000 s⁻¹
- pKd [5]: ~3.19

Structure (SMILES): Nc1nc2c(ncn2[C@@H]2O[C@H](COP(=O)(O)OP(=O)(O)OP(=O)(O)O)[C@@H](O)[C@H]2O)c(=O)[nH]1 [GTP, guanosine triphosphate]
- pKd [1]: 3.29
- pKd [2]: 4.07
- pKd [3]: 3.75
- off-rate (GTP) ([4]; 35° C.): 12 s⁻¹
- on-rate for GTP ([4]; 35° C.): 800000 M⁻¹ s⁻¹
- rate of GTP hydrolysis [4]: 0.0015 s⁻¹
- rate of GTP hydrolysis, fold slower than the rate of GTP release ([4]; ratio): about 5000 fold
- pKd [5]: 3.56

Structure (SMILES): COc1c(C)c2c(c(O)c1C/C=C(\C)CCC(=O)O)C(=O)OC2 [MPA, mycophenolic acid]
- cpYFP (green) signal of cells vs untreated [6]: brighter green hue
- effect of MPA treatment on ratiometric signal (distribution of ratio and average value) ([7]; 20 hrs, p-value of 0.005): distinct difference in the distribution of the ratio as well as the average value
- GTP-sensitive signal (cpYFP green) after MPA treatment ([7]; signal inversely related to GTP concentration): brighter green hue than those untreated
- effect of MPA treatment on ratiometric signal [8]: no effect

Structure (SMILES): Nc1nc2c(ncn2[C@H]2C[C@H](O)[C@@H](COP(=O)(O)OP(=O)(O)OP(=O)(O)O)O2)c(=O)[nH]1 [dGTP]
- binding of dGTP relative to GTP [9]: as well as, if not slightly better than GTP itself
